Measured values: patent publication US20090311217A1, “3-SUBSTITUTED-1H-INDOLE COMPOUNDS, THEIR USE AS MTOR KINASE AND PI3 KINASE INHIBITORS, AND THEIR SYNTHESES” (priority 2008, published 2009)
pIC50: −log10 of the molar value.

What was measured:
Assay type in all cases: biochemical
human TOR = target: T1, human TOR (Homo sapiens, UniProt P42345); assay: mTOR enzyme assay (DELFIA, His6-S6K substrate); conditions: read-out: mTOR Kinase Avg. IC50
T1 construct: FLAG

PI3K-alpha = PI3K-alpha (Homo sapiens, UniProt P42336); assay: PI3K-alpha fluorescence polarization assay; conditions: read-out: PI3Kα Avg. IC50
PI3K-gamma = PI3K-gamma (Homo sapiens, UniProt P48736); assay: PI3K-gamma fluorescence polarization assay; conditions: PI3Kγ Avg. IC50
In short: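 Reactions used 5 ng enzyme with 2.5 μM diC8-PI(4,5)P2 and 25 μM ATP in 5 mM HEPES pH 7, 2.5 mM MgCl2, run 1 h at 25° C. After an EDTA quench (10 mM), 100 nM GST-GRP1 PH domain and 5 nM BODIPY-TMR-IP4 were added and fluorescence polarization was read.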

Sequence of PI3K-gamma (P48736 whole entry, species assumed, the tested form may be a part): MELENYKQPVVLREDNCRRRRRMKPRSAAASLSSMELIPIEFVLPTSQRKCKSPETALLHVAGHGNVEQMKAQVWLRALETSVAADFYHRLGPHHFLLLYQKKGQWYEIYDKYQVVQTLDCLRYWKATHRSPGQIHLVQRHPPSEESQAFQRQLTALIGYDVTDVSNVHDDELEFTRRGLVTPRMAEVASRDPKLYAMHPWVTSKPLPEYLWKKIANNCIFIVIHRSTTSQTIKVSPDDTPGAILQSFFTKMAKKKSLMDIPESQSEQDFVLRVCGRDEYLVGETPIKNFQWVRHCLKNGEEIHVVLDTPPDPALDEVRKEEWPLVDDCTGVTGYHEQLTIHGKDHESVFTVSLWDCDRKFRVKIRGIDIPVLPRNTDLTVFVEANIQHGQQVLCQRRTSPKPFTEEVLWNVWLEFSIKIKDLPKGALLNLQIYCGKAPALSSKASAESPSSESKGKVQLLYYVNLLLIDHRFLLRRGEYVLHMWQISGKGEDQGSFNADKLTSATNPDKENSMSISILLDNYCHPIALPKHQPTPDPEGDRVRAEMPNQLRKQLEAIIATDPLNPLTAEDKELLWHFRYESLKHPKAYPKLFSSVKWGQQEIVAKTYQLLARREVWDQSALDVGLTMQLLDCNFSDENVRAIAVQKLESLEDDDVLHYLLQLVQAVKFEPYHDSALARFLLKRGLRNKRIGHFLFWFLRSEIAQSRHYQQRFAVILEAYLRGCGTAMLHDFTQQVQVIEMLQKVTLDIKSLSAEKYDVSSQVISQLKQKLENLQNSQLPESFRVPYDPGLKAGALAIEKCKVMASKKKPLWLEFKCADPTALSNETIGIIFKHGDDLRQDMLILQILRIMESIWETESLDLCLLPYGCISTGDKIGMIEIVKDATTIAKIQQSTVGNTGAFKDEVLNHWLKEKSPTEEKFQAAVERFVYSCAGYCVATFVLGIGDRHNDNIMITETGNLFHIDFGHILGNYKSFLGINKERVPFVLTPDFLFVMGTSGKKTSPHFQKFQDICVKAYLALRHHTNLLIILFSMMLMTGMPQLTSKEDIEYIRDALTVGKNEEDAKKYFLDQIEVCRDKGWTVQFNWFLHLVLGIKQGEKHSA
Sequence of PI3K-alpha (P42336 whole entry, species assumed): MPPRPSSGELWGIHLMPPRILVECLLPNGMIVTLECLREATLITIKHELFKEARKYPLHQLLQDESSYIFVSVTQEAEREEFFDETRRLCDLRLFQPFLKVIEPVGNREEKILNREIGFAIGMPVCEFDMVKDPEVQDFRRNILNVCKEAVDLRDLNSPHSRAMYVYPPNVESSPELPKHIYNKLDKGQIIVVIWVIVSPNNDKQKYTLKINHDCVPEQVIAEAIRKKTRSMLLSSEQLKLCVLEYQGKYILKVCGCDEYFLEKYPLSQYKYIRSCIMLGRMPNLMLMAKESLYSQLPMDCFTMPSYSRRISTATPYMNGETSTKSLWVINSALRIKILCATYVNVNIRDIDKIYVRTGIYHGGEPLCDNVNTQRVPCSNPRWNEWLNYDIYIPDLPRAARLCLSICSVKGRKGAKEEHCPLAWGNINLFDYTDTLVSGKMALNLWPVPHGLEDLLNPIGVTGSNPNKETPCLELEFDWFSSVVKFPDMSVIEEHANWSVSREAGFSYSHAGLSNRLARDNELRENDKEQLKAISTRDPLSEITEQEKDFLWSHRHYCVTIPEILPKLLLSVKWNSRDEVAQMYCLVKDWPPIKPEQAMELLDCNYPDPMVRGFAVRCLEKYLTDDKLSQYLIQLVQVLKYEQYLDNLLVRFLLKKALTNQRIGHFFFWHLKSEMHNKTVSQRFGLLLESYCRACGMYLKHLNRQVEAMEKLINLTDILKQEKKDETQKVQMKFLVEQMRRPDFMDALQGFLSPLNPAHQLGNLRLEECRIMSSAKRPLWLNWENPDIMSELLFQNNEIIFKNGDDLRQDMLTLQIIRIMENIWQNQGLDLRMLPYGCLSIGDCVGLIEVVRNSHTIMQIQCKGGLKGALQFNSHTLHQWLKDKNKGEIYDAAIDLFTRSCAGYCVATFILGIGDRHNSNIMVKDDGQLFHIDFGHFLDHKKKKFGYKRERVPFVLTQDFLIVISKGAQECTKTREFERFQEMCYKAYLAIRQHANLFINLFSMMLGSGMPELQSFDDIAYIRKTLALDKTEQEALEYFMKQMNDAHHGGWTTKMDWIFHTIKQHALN
Sequence of PI3K-alpha (P27986 whole entry partner, species assumed): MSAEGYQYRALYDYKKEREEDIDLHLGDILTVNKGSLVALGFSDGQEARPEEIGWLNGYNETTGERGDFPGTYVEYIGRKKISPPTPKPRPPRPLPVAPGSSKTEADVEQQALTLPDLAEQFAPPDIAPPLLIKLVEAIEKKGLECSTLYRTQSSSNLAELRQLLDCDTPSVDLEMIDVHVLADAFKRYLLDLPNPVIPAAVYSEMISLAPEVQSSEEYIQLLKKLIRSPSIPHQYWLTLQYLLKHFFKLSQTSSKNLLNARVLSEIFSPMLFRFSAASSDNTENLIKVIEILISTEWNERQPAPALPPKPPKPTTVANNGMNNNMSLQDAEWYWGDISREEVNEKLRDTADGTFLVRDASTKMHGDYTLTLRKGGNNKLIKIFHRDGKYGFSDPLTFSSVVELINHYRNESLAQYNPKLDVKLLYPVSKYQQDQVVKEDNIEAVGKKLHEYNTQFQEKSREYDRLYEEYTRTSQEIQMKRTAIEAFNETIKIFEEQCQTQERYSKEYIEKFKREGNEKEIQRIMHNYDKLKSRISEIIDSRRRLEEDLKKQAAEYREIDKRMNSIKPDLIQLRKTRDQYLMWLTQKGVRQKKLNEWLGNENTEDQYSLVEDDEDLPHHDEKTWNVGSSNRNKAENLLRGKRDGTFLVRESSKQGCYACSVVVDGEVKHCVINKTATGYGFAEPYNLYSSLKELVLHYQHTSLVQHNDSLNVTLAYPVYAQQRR

| pIC50 (human TOR) | pIC50 (PI3K-alpha) | pIC50 (PI3K-gamma) | SMILES |
| --- | --- | --- | --- |
| 8.30 | 9.30 | 8.60 | COc1ccc2[nH]c(-c3c(C)nn(C)c3C)c(/C=C3\Oc4ccc(NC(=O)Nc5cccnc5)cc4C3=O)c2c1 [Compound 635, 1-[(2Z)-2-{[5-methoxy-2-(1,3,5-trimethyl-1H-pyrazol-4-yl)-1H-indol-3-yl]methylene}-3-oxo-2,3-dihydro-1-benzofuran-5-yl]-3-pyridin-3-ylurea] |
| 6.78 | 8.40 | 6.00 | CNC(=O)Nc1ccc2c(c1)C(=O)/C(=C/c1c(N3CCN(C)CC3)n(CCN3CCN(C)CC3)c3ccc(OC)cc13)O2 [Compound 636, 1-[(2Z)-2-({5-methoxy-2-(4-methylpiperazin-1-yl)-1-[2-(4-methylpiperazin-1-yl)ethyl]-1H-indol-3-yl}methylene)-3-oxo-2,3-dihydro-1-benzofuran-5-yl]-3-methylurea] |
| 7.46 | 8.66 | 7.73 | CNC(=O)Nc1ccc2c(c1)C(=O)/C(=C/c1c(-c3c(OC)cccc3OC)[nH]c3ccc(OC)cc13)O2 [Compound 637, 1-[(2Z)-2-{[2-(2,6-dimethoxyphenyl)-5-methoxy-1H-indol-3-yl]methylene}-3-oxo-2,3-dihydro-1-benzofuran-5-yl]-3-methylurea] |
| 8.10 | 8.52 | 6.67 | COc1ccc2c(c1)c(/C=C1\Oc3ccc(NC(=O)Nc4cccnc4)cc3C1=O)c(C1CCCC1)n2CCN1CCN(C)CC1 [Compound 638, 1-[(2Z)-2-({2-cyclopentyl-5-methoxy-1-[2-(4-methylpiperazin-1-yl)ethyl]-1H-indol-3-yl}methylene)-3-oxo-2,3-dihydro-1-benzofuran-5-yl]-3-pyridin-3-ylurea] |
| 5.84 | 6.31 | 5.22 | CNC(=O)Nc1cc2c(cc1C)O/C(=C\c1c(C)n(CCN3CCN(C)CC3)c3ccc(OC)cc13)C2=O [Compound 640, 1-[(2Z)-2-({5-methoxy-2-methyl-1-[2-(4-methylpiperazin-1-yl)ethyl]-1H-indol-3-yl}methylene)-6-methyl-3-oxo-2,3-dihydro-1-benzofuran-5-yl]-3-methylurea] |
| 8.00 | 8.80 | 8.10 | CNC(=O)Nc1ccc2c(c1)C(=O)/C(=C/c1c(C3CCCCC3)[nH]c3ccc(OC)cc13)O2 [Compound 641, 1-{(2Z)-2-[(2-cyclohexyl-5-methoxy-1H-indol-3-yl)methylene]-3-oxo-2,3-dihydro-1-benzofuran-5-yl}-3-methylurea] |
| 5.59 | 9.02 | 8.10 | CCn1cc(/C=C2\Oc3ccc(NC(=O)Nc4ccc(C(=O)N5CCN(C)CC5)cc4)cc3C2=O)c2cc(OC)ccc21 [Compound 642, 1-{(2Z)-2-[(1-ethyl-5-methoxy-1H-indol-3-yl)methylene]-3-oxo-2,3-dihydro-1-benzofuran-5-yl}-3-{4-[(4-methylpiperazin-1-yl)carbonyl]phenyl}urea] |
| < 5.40 | 9.05 | 8.40 | COc1ccc2[nH]cc(/C=C3\Oc4ccc(NC(=O)Nc5ccc(C(=O)N6CCN(C)CC6)cc5)cc4C3=O)c2c1 [Compound 643, 1-{(2Z)-2-[(5-methoxy-1H-indol-3-yl)methylene]-3-oxo-2,3-dihydro-1-benzofuran-5-yl}-3-{4-[(4-methylpiperazin-1-yl)carbonyl]phenyl}urea] |
| 7.48 | 9.52 | 8.60 | COc1ccc2[nH]c(C3CCCCC3)c(/C=C3\Oc4ccc(NC(=O)Nc5ccc(C(=O)N6CCN(C)CC6)cc5)cc4C3=O)c2c1 [Compound 644, 1-{(2Z)-2-[(2-cyclohexyl-5-methoxy-1H-indol-3-yl)methylene]-3-oxo-2,3-dihydro-1-benzofuran-5-yl}-3-{4-[(4-methylpiperazin-1-yl)carbonyl]phenyl}urea] |
| 6.73 | 8.74 | 7.26 | CCn1c(C2CCCCC2)c(/C=C2\Oc3ccc(NC(=O)Nc4ccc(C(=O)N5CCN(C)CC5)cc4)cc3C2=O)c2cc(OC)ccc21 [Compound 645, 1-{(2Z)-2-[(2-cyclohexyl-1-ethyl-5-methoxy-1H-indol-3-yl)methylene]-3-oxo-2,3-dihydro-1-benzofuran-5-yl}-3-{4-[(4-methylpiperazin-1-yl)carbonyl]phenyl}urea] |
| 7.89 | 8.60 | 7.17 | CNC(=O)Nc1ccc2c(c1)C(=O)/C(=C/c1c(-c3c(C)nn(C)c3C)n(CCN3CCN(C)CC3)c3ccc(OC)cc13)O2 [Compound 646, 1-[(2Z)-2-({5-methoxy-1-[2-(4-methylpiperazin-1-yl)ethyl]-2-(1,3,5-trimethyl-1H-pyrazol-4-yl)-1H-indol-3-yl}methylene)-3-oxo-2,3-dihydro-1-benzofuran-5-yl]-3-methylurea] |
| 5.90 | 8.00 | 5.31 | CNC(=S)Nc1ccc2c(c1)C(=O)/C(=C/c1c(C)n(CCN3CCN(C)CC3)c3ccc(OC)cc13)O2 [Compound 647, 1-[(2Z)-2-({5-methoxy-2-methyl-1-[2-(4-methylpiperazin-1-yl)ethyl]-1H-indol-3-yl}methylene)-3-oxo-2,3-dihydro-1-benzofuran-5-yl]-3-methylthiourea] |
| 8.05 | 8.53 | 7.43 | CNC(=O)Nc1ccc2c(c1)C(=O)/C(=C/c1c(-c3c(C)nn(C)c3C)n(CCNCCO)c3ccc(OC)cc13)O2 [Compound 648, 1-[(2Z)-2-{[1-{2-[(2-hydroxyethyl)amino]ethyl}-5-methoxy-2-(1,3,5-trimethyl-1H-pyrazol-4-yl)-1H-indol-3-yl]methylene}-3-oxo-2,3-dihydro-1-benzofuran-5-yl]-3-methylurea] |
| 7.51 | 9.40 | 7.72 | COc1ccc2c(c1)c(/C=C1\Oc3ccc(NC(=O)Nc4ccc(C(=O)N(C)CCN(C)C)cc4)cc3C1=O)c(C)n2CCN1CCN(C)CC1 [Compound 649, N-[2-(dimethylamino)ethyl]-4-({[(2Z)-2-({5-methoxy-2-methyl-1-[2-(4-methylpiperazin-1-yl)ethyl]-1H-indol-3-yl}methylene)-3-oxo-2,3-dihydro-1-benzofuran-5-yl]carbamoyl}amino)-N-methylbenzamide] |
| 7.51 | 9.40 | 8.52 | CCn1c(C)c(/C=C2\Oc3ccc(NC(=O)Nc4ccc(C(=O)N5CCC(N(C)C)CC5)cc4)cc3C2=O)c2cc(OC)ccc21 [Compound 650, 1-(4-{[4-(dimethylamino)piperidin-1-yl]carbonyl}phenyl)-3-{(2Z)-2-[(1-ethyl-5-methoxy-2-methyl-1H-indol-3-yl)methylene]-3-oxo-2,3-dihydro-1-benzofuran-5-yl}urea] |
| 6.11 | 9.05 | 7.71 | CCn1c(C)c(/C=C2\Oc3ccc(NC(=O)Nc4ccc(C(=O)C5CCN(C)CC5)cc4)cc3C2=O)c2cc(OC)ccc21 [Compound 651, 1-{(2Z)-2-[(1-ethyl-5-methoxy-2-methyl-1H-indol-3-yl)methylene]-3-oxo-2,3-dihydro-1-benzofuran-5-yl}-3-{4-[(1-methylpiperidin-4-yl)carbonyl]phenyl}urea] |
| 6.87 | 8.46 | 7.74 | CCn1c(C)c(/C=C2\Oc3ccc(NC(=O)Nc4ccc(N(C)CCN(C)C)cc4)cc3C2=O)c2cc(OC)ccc21 [Compound 652, 1-(4-{[2-(dimethylamino)ethyl](methyl)amino}phenyl)-3-{(2Z)-2-[(1-ethyl-5-methoxy-2-methyl-1H-indol-3-yl)methylene]-3-oxo-2,3-dihydro-1-benzofuran-5-yl}urea] |
| 6.90 | 8.40 | 7.68 | CCn1c(C)c(/C=C2\Oc3ccc(NC(=O)Nc4ccc(N(C)CCCN(C)C)cc4)cc3C2=O)c2cc(OC)ccc21 [Compound 653, 1-(4-{[3-(dimethylamino)propyl](methyl)amino}phenyl)-3-{(2Z)-2-[(1-ethyl-5-methoxy-2-methyl-1H-indol-3-yl)methylene]-3-oxo-2,3-dihydro-1-benzofuran-5-yl}urea] |
| 7.06 | 8.82 | 8.12 | CCn1c(C)c(/C=C2\Oc3ccc(NC(=O)Nc4ccc(OCCCN(C)C)cc4)cc3C2=O)c2cc(OC)ccc21 [Compound 654, 1-{4-[3-(dimethylamino)propoxy]phenyl}-3-{(2Z)-2-[(1-ethyl-5-methoxy-2-methyl-1H-indol-3-yl)methylene]-3-oxo-2,3-dihydro-1-benzofuran-5-yl}urea] |
| 6.76 | 9.22 | 8.12 | CCn1cc(/C=C2\Oc3ccc(NC(=O)Nc4ccc(C(=O)N(C)CCN(C)C)cc4)cc3C2=O)c2cc(OC)ccc21 [Compound 655, N-[2-(dimethylamino)ethyl]-4-[({(2Z)-2-[(1-ethyl-5-methoxy-1H-indol-3-yl)methylene]-3-oxo-2,3-dihydro-1-benzofuran-5-yl}carbamoyl)amino]-N-methylbenzamide] |
| 7.46 | 9.02 | 7.28 | CNC(=O)Nc1ccc2c(c1)C(=O)/C(=C/c1c(-c3c(C)nn(C)c3C)n(CCN3CCNCC3)c3ccc(OC)cc13)O2 [Compound 656, 1-[(2Z)-2-{[5-methoxy-1-(2-piperazin-1-ylethyl)-2-(1,3,5-trimethyl-1H-pyrazol-4-yl)-1H-indol-3-yl]methylene}-3-oxo-2,3-dihydro-1-benzofuran-5-yl]-3-methylurea] |
| 7.08 | 9.40 | 8.46 | CCn1c(C)c(/C=C2\Oc3ccc(NC(=O)Nc4ccc(C(=O)N(C)CCCN(C)C)cc4)cc3C2=O)c2cc(OC)ccc21 [Compound 657, N-[3-(dimethylamino)propyl]-4-[({(2Z)-2-[(1-ethyl-5-methoxy-2-methyl-1H-indol-3-yl)methylene]-3-oxo-2,3-dihydro-1-benzofuran-5-yl}carbamoyl)amino]-N-methylbenzamide] |
